In US20250367189A1, “2-BROMO-LYSERGIC ACID DI[…] SUBSTANCE ABUSE” (Ceruvia Lifesciences LLC, priority 2020, published 2025):

Tests used:
male fosTRAP2×Ai14 mice = assay: Two-bottle choice (water vs 20% ethanol) drinking after ethanol exposure; format: in vivo; conditions: for ethanol preference, within-group mean difference week 1 vs. week 3: follow-up week 1 (after dose 1) vs week 3 (after dose 2); for ethanol consumption, mean difference Saline vs. treatment: planned contrast across 4 follow-up weeks, LSD 50 ug/kg or BOL-148 3.0 mg/kg intraperitoneal; for effect of treatment on alcohol preference (summary) / additive effect of a second dose on alcohol preference: summary in words; for additive effect of a second dose on alcohol preference: two doses, weeks 1 and 3
From the text: Twenty-five adult (12-30-week old), male fosTRAP2×Ai14 mice were bred in-house. Generation of the fosTRAP2 and FosTRAP lines were previously described (Guenthner, et al.). fosTRAP2 mice were crossed with Ai14 mice to obtain the mice used in this study. Mice were single-housed on a reverse light-dark cycle and given unlimited access to standard mouse chow and water. Animals were given a week to habituate to single housing, after which they were given free access to 2 bottles containing water and 20% ethanol for 24-hour periods beginning at the start of their dark cycle, 5 days per week (Monday-Friday) for 4 weeks (ethanol exposure). Amount of water and ethanol consumed (by volume and weight) were measured for each mouse across the final 5 days of the ethanol exposure period, and ethanol preference was counterbalanced across treatment group by the mean ethanol preference by weight (corrected for body weight) during this period.
Following 4 weeks of ethanol exposure, animals were administered one of 3 treatments via a single intraperitoneal injection 10 minutes prior to onset of the dark cycle/day one in a five-day cycle of alcohol exposure: saline, LSD 50 ug/kg, or BOL-148 3.0 mg/kg. Following administration of treatment, animals were placed back into their home cages with free access to standard mouse chow and water. After 10 minutes, 12 animals from each treatment group were given free access to 2 bottles containing water and 20% ethanol for 24 hours daily for 4 weeks (alcohol preference). Amount of water and ethanol consumed (by volume and weight) were measured daily at the end of the light cycle. Positions of bottles containing water and 20% ethanol were alternated daily to prevent the formation of place preference. An additional 2-4 animals per treatment group were given free access to standard mouse chow and water, and ambulatory activity as well as head-twitching behavior (thought to correspond with hallucinogenicity of substances in mice), was measured for 35 minutes following treatment.
For all hypotheses, data were analyzed using Mixed Models for Repeated Measures (MMRM), including fixed effects of Treatment (Saline, BOL, LSD), Week (1-4), Day (1-5), and two- and three-way interactions between Treatment and Day/Week. Repeated Effects were represented as a nested within-subjects variable (days within weeks). Data were analyzed separately for each of 3 dependent variables: ethanol consumption (mg and ml consumed), ethanol preference (ethanol consumption/total fluid consumption), and total fluid consumption (mg and ml consumed). For hypothesis 1a, a priori between-group comparisons are performed to contrast ethanol consumption, ethanol preference, and total fluid consumption between the vehicle- and LSD-treated groups. For hypothesis 1b, a priori between-group comparisons are performed to contrast ethanol consumption, ethanol preference, and total fluid consumption between the LSD-treated group at follow-up weeks 1 versus 3. For hypothesis 2a, a priori between-group comparisons are performed to contrast ethanol consumption, ethanol preference, and total fluid consumption between the vehicle- and BOL-148-treated groups. For hypothesis 2b, a priori between-group comparisons are performed to contrast ethanol consumption, ethanol preference, and total fluid consumption between the LSD- and BOL-148-treated groups. For each hypothesis, with 3 groups of 5-10 animals (total n=25) and 20 days of repeated measurements (autocorrelation=0.5), there is power of 0.8 to detect moderately-sized effects of approximately d=0.3 at alpha=0.05.

[1] = tested on: participants with alcohol dependence; conditions: single high-dose LSD session vs control, six trials; cited from earlier work
C57BL/6J mice = conditions: cited from earlier work
rodents = conditions: cited from earlier work
5HT1A receptors = molecular target: T1, 5HT1A receptors (Homo sapiens, UniProt P08908); conditions: cited from earlier work
T1 sequence (P08908 1-422): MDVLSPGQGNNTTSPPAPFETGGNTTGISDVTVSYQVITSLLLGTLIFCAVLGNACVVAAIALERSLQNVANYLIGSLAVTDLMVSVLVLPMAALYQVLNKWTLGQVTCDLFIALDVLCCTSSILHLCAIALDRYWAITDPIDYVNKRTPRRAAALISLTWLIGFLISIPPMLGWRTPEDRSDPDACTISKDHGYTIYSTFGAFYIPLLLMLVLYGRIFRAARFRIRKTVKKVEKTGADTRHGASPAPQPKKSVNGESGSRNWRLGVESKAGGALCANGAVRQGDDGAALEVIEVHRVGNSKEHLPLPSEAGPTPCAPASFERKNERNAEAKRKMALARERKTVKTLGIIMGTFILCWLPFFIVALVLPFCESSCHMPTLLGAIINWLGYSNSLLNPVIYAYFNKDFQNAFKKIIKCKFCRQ

5HT2A receptors = 5HT2A receptors (Homo sapiens, UniProt P28223); conditions: cited from earlier work
5HT2A receptors, sequence (P28223 whole entry): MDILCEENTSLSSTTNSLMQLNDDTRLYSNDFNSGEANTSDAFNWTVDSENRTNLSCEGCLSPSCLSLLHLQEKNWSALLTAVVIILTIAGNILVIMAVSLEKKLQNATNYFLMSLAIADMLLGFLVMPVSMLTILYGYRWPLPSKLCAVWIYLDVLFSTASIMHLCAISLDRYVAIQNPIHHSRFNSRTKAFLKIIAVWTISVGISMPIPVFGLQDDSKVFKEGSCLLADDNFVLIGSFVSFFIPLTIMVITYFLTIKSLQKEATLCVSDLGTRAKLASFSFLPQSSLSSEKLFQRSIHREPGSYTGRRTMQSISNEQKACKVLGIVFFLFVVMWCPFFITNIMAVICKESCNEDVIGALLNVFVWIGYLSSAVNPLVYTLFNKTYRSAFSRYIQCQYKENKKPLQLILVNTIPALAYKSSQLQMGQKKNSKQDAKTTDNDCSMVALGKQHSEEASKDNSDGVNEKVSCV

dopamine receptors = conditions: cited from earlier work
5-HT receptors = conditions: cited from earlier work
[2] = in vivo; cited from earlier work
humans = conditions: cited from earlier work
rats [3] = conditions: cited from earlier work
human participants = conditions: 0.03 mg/kg delivered daily; cited from earlier work
rats [4] = conditions: cited from earlier work; remark: listed apart in the source
[5] = tested on: participants with alcoholism; conditions: 1 to 6 DPT sessions; cited from earlier work
[6] = tested on: participants with alcoholism; conditions: DPT treatment vs conventional treatment; cited from earlier work
[7] = LSD 50 ug/kg or BOL-148 3.0 mg/kg IP

Compound: CCN(CC)C(=O)[C@@H]1C=C2c3cccc4[nH]cc(c34)C[C@H]2N(C)C1 [LSD, lysergic acid diethylamide]
- ethanol preference, mean difference LSD vs. BOL-148 (male fosTRAP2×Ai14 mice; LSD 50 ug/kg versus BOL-148 3.0 mg/kg treated groups): 0.081
- ethanol preference, within-group mean difference week 1 vs. week 3 (male fosTRAP2×Ai14 mice; [7]): 0.014
- ethanol consumption, mean difference Saline vs. treatment (male fosTRAP2×Ai14 mice): 0.050 mg total ethanol consumed/mg of body weight
- ethanol preference (ethanol consumption/total fluid consumption), mean difference Saline vs. treatment (male fosTRAP2×Ai14 mice; planned contrast across follow-up, LSD 50 ug/kg or BOL-148 3.0 mg/kg IP): 0.168
- ethanol consumption, mean difference Saline vs. LSD, Week 1 (male fosTRAP2×Ai14 mice; post-hoc, Week 1 (injection week), LSD 50 ug/kg IP): 0.062 mg total ethanol consumed/mg of body weight
- ethanol consumption, mean difference Saline vs. LSD, Week 2 (male fosTRAP2×Ai14 mice; post-hoc, Week 2 (non-injection week), LSD 50 ug/kg IP): 0.077 mg total ethanol consumed/mg of body weight
- ethanol consumption, mean difference Saline vs. LSD, Week 3 (male fosTRAP2×Ai14 mice; post-hoc, Week 3 (injection week), LSD 50 ug/kg IP): −0.029 mg total ethanol consumed/mg of body weight
- ethanol consumption, mean difference Saline vs. LSD, Week 4 (male fosTRAP2×Ai14 mice; post-hoc, Week 4 (non-injection week), LSD 50 ug/kg IP): 0.089 mg total ethanol consumed/mg of body weight
- effect of treatment on alcohol preference (summary) (male fosTRAP2×Ai14 mice): becomes apparent immediately, and remains stable for weeks
- additive effect of a second dose on alcohol preference (male fosTRAP2×Ai14 mice): An additive effect was not found
- odds of improvement at first post-treatment follow-up (OR) [1]: 1.96
- effect on alcohol consumption and alcohol preference (C57BL/6J mice; acute administration of 50 ug/kg LSD, C57BL/6J mice): robust and lasting reduction
- duration of observation over which reduced ethanol consumption was shown (C57BL/6J mice; mice, 25 μg/kg LSD): 46 days
- group mean reduction of ethanol consumption relative to controls (C57BL/6J mice; mice, 25 μg/kg LSD): 17.9%
- range of doses that reliably produce accurate responding in a discrimination task or head twitch response (rodents): 0.17 to 0.2 mg/kg
- activity at 5HT1A receptors (5HT1A receptors): potent agonist
- activity at 5HT2A receptors (5HT2A receptors): partial agonist
- activity at dopamine receptors (dopamine receptors): partial agonist

Compound: CCN(CC)C(=O)[C@@H]1C=C2c3cccc4[nH]c(Br)c(c34)C[C@H]2N(C)C1 [BOL-148, 2-bromo-lysergic acid diethylamide]
- ethanol preference, within-group mean difference week 1 vs. week 3 (male fosTRAP2×Ai14 mice; [7]): 0.119
- ethanol consumption, mean difference Saline vs. treatment (male fosTRAP2×Ai14 mice): 0.004 mg total ethanol consumed/mg of body weight
- effect of treatment on alcohol preference (summary) (male fosTRAP2×Ai14 mice): modest effect
- additive effect of a second dose on alcohol preference (male fosTRAP2×Ai14 mice): an additive effect of BOL-148 was found
- activity at 5HT2A receptors (5HT2A receptors): 5HT2A antagonist activity
- effect on 5-HT receptors (5-HT receptors): neutral antagonist
- psychedelic activity [2]: inactive as a psychedelic
- blockade of the effects of LSD in humans (humans): could block the effects of LSD
- blockade of the effects of LSD by pre-treatment (rats [3]): will not block the effects of LSD
- effect on cluster headaches (human participants): effective at reducing cluster headaches

Compound: COc1cc(CC(C)N)c(OC)cc1I (stereo not shown) [DOI, 2,5-dimethoxy-4-iodoamphetamine]
- effect on alcohol preference (rats [4]): reduce alcohol preference

Compound: CCCN(CCC)CCc1c[nH]c2ccccc12 [DPT, Dipropyltryptamine]
- clinical outcomes including abstinence at 6 months [5]: highly significant improvement
- clinical outcomes at 6 month follow-up vs other groups [6]: no significant differences
